Source: patent US11633392B2 (priority 2016, dated 2023)
Structures can show the parent of a compound that is named as a salt. Where two headings read alike, the source gives them in different places. Marks after values point to notes of the source that are not given here.

Key:
Assay type in all cases: cell-based
[1] = molecular target: T1, human opioid δ receptor (Homo sapiens, UniProt P41143); experiment: Opioid receptor function test (Lance Ultra cAMP Kit), δ receptor; settings: for EC50: CHO cells expressing human δ receptor, cAMP, in the presence of forskolin; for Emax / δ receptor Emax: ratio to maximum reaction of control drug SNC80 taken as 100%
T1 construct: host or cells: CHO cells
T1 sequence (P41143 whole entry): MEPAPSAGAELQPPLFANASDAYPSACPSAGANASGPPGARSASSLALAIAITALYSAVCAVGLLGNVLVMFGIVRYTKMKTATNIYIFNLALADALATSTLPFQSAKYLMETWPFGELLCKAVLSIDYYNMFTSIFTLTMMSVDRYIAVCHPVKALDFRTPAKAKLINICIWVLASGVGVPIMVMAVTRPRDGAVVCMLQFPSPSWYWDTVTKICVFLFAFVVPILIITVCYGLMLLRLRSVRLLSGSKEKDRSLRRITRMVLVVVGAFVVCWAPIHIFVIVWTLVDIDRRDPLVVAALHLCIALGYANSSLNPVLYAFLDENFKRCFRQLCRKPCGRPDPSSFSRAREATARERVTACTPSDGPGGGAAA
Experimental: (§1) Opioid Receptor Function Test
(§2) The functional activities of the compounds provided by the present invention on the μ, δ, and κ opioid receptors were investigated.
(§3) The test was performed by using Lance Ultra cAMP Kit (PerkinElmer) according to a method predetermined for the kit. In the evaluation of the agonistic activity, CHO cells expressing each of the human opioid receptors (δ, μ, and κ, accession numbers and catalog numbers are mentioned below) and 10 μM of each test compound were reacted for 30 minutes in an assay buffer (1× HBSS, […], pH 7.4, […] (isobutylmethylxanthine), 7.5% BSA) in the presence of forskolin. Subsequently, the cAMP detection reagent included in the kit was added, and 1 hour afterward, time-resolved fluorescence measurement was performed by using the EnVision plate reader (PerkinElmer). The test compounds and the control drugs (δ: SNC80, μ: DAMGO, κ: U-69593) were evaluated in a concentration range of 10^−12 to 10^−5 M, a dose-response curve of each test compound was obtained from the fluorescence values at 665 nm, and EC50 value and the Emax value were calculated. The Emax value was calculated as a ratio of the maximum reaction of the test compound to the maximum reaction of each control drug, which is taken as 100%.
(§4) • δ: Catalog No. CT4607, Accession No. NM_000911.2 • μ: Catalog No. CT4605, Accession No. NM_000914 • κ: Catalog No. CT4606, Accession No. NM_000912 (ChanTest Corporation)

[2] = molecular target: T2, human opioid κ receptor (Homo sapiens, UniProt P41145); experiment: Opioid receptor function test (Lance Ultra cAMP Kit), κ receptor; settings: for EC50: CHO cells expressing human κ receptor, cAMP, in the presence of forskolin; for κ receptor reaction rate at the maximum concentration (reference value, marked *): maximum reaction not reached, maximum concentration 10 μM, U-69593 = 100%
T2 construct: host or cells: CHO cells
T2 sequence (P41145 whole entry): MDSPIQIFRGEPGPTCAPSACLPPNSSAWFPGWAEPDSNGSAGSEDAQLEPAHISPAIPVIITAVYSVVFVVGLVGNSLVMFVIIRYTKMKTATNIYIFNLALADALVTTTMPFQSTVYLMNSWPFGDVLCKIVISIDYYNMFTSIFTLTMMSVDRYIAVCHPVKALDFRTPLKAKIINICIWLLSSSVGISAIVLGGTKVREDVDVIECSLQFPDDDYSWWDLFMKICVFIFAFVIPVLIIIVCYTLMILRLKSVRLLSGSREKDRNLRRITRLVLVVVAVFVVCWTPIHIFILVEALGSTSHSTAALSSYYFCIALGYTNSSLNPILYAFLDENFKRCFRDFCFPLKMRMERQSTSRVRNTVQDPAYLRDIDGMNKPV
Experimental: as §1, §2, §3, §4

[3] = molecular target: T3, human opioid μ receptor (Homo sapiens, UniProt P35372); experiment: Opioid receptor function test (Lance Ultra cAMP Kit), μ receptor; settings: for EC50: read-out: μ receptor EC50 value
T3 construct: host or cells: CHO cells
T3 sequence (P35372 whole entry): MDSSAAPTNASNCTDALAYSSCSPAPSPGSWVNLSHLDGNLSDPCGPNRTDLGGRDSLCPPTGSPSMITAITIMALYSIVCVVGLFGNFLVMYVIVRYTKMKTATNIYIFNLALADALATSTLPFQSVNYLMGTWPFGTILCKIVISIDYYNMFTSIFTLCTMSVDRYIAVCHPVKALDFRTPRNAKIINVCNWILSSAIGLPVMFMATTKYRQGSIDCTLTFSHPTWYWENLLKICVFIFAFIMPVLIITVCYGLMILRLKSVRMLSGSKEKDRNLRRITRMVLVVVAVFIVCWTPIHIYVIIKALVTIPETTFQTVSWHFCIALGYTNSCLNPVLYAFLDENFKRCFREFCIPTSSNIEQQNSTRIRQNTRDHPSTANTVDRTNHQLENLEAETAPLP
Experimental: as §1, §2, §3, §4

[4] = ratio to maximum reaction of control drug U-69593 taken as 100%
[5] = CHO cells expressing human μ receptor, cAMP, in the presence of forskolin
[6] = ratio to maximum reaction of control drug DAMGO taken as 100%

| SMILES | EC50 [1] [nM] | Emax [1] [%] | EC50 [2] [nM] | Emax [2, 4] [%] | μ receptor reaction rate at the maximum concentration (reference value, marked *) ([3]; maximum reaction not reached, maximum concentration 10 μM, DAMGO = 100%) | κ receptor reaction rate at the maximum concentration (reference value, marked *) [2] | EC50 [3, 5] [nM] | Emax [3, 6] [%] | δ receptor Emax [1] [%] | μ receptor Emax [3] [%] | EC50 [3] [nM] | κ receptor Emax [2, 4] [%] | μ receptor Emax [3, 6] [%] |
| --- | --- | --- | --- | --- | --- | --- | --- | --- | --- | --- | --- | --- | --- |
| O=C(c1ccc[n+]([O-])c1)N1C[C@H]2C[C@@]34CC[C@@H]1[C@@H]2[C@@]31CCN(CC2CC2)[C@@H]4Cc2ccc(O)cc21 [Example 4, 3-((1S,3aR,5aS,6R,11bR,11cS)-14-(cyclopropylmethyl)-10-hydroxy-2,3,3a,4,5,6,7,11c-octahydro-1H-6,11b-(epiminoethano)-1,5a-methanonaphtho[1,2-e]indole-3-carbonyl)pyridine 1-oxide] | < 3 | 86 | > 10 | 27 | 5.5* % | – | – | – | – | – | – | – | – |
| O=C(c1cc(=O)cc[nH]1)N1C[C@H]2C[C@@]34CC[C@@H]1[C@@H]2[C@@]31CCN(CC2CC2)[C@@H]4Cc2ccc(O)cc21 [Example 14, 2-((1S,3aR,5aS,6R,11bR,11cS)-14-(cyclopropylmethyl)-10-hydroxy-2,3,3a,4,5,6,7,11c-octahydro-1H-6,11b-(epiminoethano)-1,5a-methanonaphtho[1,2-e]indole-3-carbonyl)pyridin-4(1H)-one] | < 3 | 95 | – | – | – | −6.7* % | > 1 | 8.1 | – | – | – | – | – |
| Cn1cccc(C(=O)N2C[C@H]3C[C@@]45CC[C@@H]2[C@@H]3[C@@]42CCN(CC3CC3)[C@@H]5Cc3ccc(O)cc32)c1=O [Example 31, 3-((1S,3aR,5aS,6R,11bR,11cS)-14-(cyclopropylmethyl)-10-hydroxy-2,3,3a,4,5,6,7,11c-octahydro-1H-6,11b-(epiminoethano)-1,5a-methanonaphtho[1,2-e]indole-3-carbonyl)-1-methylpyridin-2(1H)-one hydrochloride] | – | – | – | – | – | – | – | – | 97 | 7.7 | > 10 | – | – |
| O=C(c1ccc(=O)[nH]c1)N1C[C@H]2C[C@@]34CC[C@@H]1[C@@H]2[C@@]31CCN(CC2CC2)[C@@H]4Cc2ccc(O)cc21 [Example 5, 5-((1S,3aR,5aS,6R,11bR,11cS)-14-(cyclopropylmethyl)-10-hydroxy-2,3,3a,4,5,6,7,11c-octahydro-1H-6,11b-(epiminoethano)-1,5a-methanonaphtho[1,2-e]indole-3-carbonyl)pyridin-2(1H)-one] | < 3 | 81 | < 1 | 20 | – | – | > 1 | 9.7 | – | – | – | – | – |
| Cn1cccc(C(=O)N2C[C@H]3C[C@@]45CC[C@@H]2[C@@H]3[C@@]42CCN(CC3CC3)[C@@H]5Cc3ccc(O)cc32)c1=O [Example 6, 3-((1S,3aR,5aS,6R,11bR,11cS)-14-(cyclopropylmethyl)-10-hydroxy-2,3,3a,4,5,6,7,11c-octahydro-1H-6,11b-(epiminoethano)-1,5a-methanonaphtho[1,2-e]indole-3-carbonyl)-1-methylpyridin-2(1H)-one] | < 3 | 97 | – | – | – | 3.2* % | > 10 | 7.7 | – | – | – | – | – |
| Cc1ccc(C(=O)N2C[C@H]3C[C@@]45CC[C@@H]2[C@@H]3[C@@]42CCN(CC3CC3)[C@@H]5Cc3ccc(O)cc32)c(=O)[nH]1 [Example 8, 3-((1S,3aR,5aS,6R,11bR,11cS)-14-(cyclopropylmethyl)-10-hydroxy-2,3,3a,4,5,6,7,11c-octahydro-1H-6,11b-(epiminoethano)-1,5a-methanonaphtho[1,2-e]indole-3-carbonyl)-6-methylpyridin-2(1H)-one] | < 3 | 70 | < 1 | 21 | – | – | > 1 | 8.6 | – | – | – | – | – |
| Cc1ccc(C(=O)N2C[C@H]3C[C@@]45CC[C@@H]2[C@@H]3[C@@]42CCN(CC3CC3)[C@@H]5Cc3ccc(O)cc32)c(=O)[nH]1 [Example 32, 3-((1S,3aR,5aS,6R,11bR,11cS)-14-(cyclopropylmethyl)-10-hydroxy-2,3,3a,4,5,6,7,11c-octahydro-1H-6,11b-(epiminoethano)-1,5a-methanonaphtho[1,2-e]indole-3-carbonyl)-6-methylpyridin-2(1H)-one hydrochloride] | – | – | – | – | – | – | – | – | 70 | – | – | 21 | 8.6 |
